# System: alcohol dependent individuals
# Test: Randomized, double-blind, placebo-controlled, 12-week clinical trial of ondansetron vs placebo in alcohol dependent individuals by genotype: drinks per drinking day (DDD)
# Format: in vivo, human
# Settings: for Least Squares Mean of Drinks per Drinking Days, Estimated Mean: Table 4B; for Least Squares Mean Difference, Drinks per Drinking Days, OND vs. Placebo: all patients (treatment main effect); for Log mean Drinks/Drinking Day: natural log
# Experimental: Two hundred and seventy eight male and female alcohol dependent individuals were entered into a randomized, double-blind, placebo-controlled, 12-week clinical trial. These individuals were divided into TT vs. […] The polymorphisms in 3''-UTR region of a gene may affect mRNA expression levels by altering their stability. […] Data was transformed to its natural log to correct for skewness. […] In total, ten SNPs in 5HT3a and nine SNPs in 5HT3b genes were analyzed in this study: […]
smiles,measurement,setting,value
"Cc1nccn1CC1CCc2c(c3ccccc3n2C)C1=O (stereo not drawn) [ondansetron, 9-methyl-3-[(2-methyl-1H-imidazol-1-yl)methyl]-1,2,3,9-tetrahydrocarbazol-4-one]","Least Squares Mean, Drinks per Drinking Days",RS17614942 CC,6.03
same,"Least Squares Mean, Drinks per Drinking Days",RS17614942 CC/AA,6.09
same,"Estimate, OND vs. Placebo, drinks per drinking days (DDD)","TT + AA (RS1042173, RS1176719)",−7.12 DDD
same,"Estimate, OND vs. Placebo, drinks per drinking days (DDD)","TT + AC (RS1042173, RS17614942)",−3.37 DDD
same,"Estimate, OND vs. Placebo, drinks per drinking days (DDD)","TT + AG (RS1042173, RS1150226)",−2.00 DDD
same,"Estimate, OND vs. Placebo, drinks per drinking days (DDD)","TT + AG + AC (RS1042173, RS1150226, RS17614942)",−2.24 DDD
same,"Estimate, OND vs. Placebo, drinks per drinking days (DDD)","TT + GG (RS1042173, RS1176713)",−6.42 DDD
same,"Estimate, OND vs. Placebo, drinks per drinking days (DDD)","TT or AA or AC (RS1042173, RS1176719, RS17614942)",−1.08 DDD
same,"Estimate, OND vs. Placebo, drinks per drinking days (DDD)","TT or AC (RS1042173, RS17614942)",−1.07 DDD
same,"Estimate, OND vs. Placebo, drinks per drinking days (DDD)","TT or AG (RS1042173, RS1150226)",−1.02 DDD
same,"Estimate, OND vs. Placebo, drinks per drinking days (DDD)","TT or AG or AC (RS1042173, RS1150226, RS17614942)",−0.99 DDD
same,"Estimate, OND vs. Placebo, drinks per drinking days (DDD)","TT or AG or GG (RS1042173, RS1150226, RS1176713)",−1.12 DDD
same,"Estimate, OND vs. Placebo, drinks per drinking days (DDD)","TT or GG (RS1042173, RS1176713)",−1.02 DDD
same,"Estimate, OND vs. Placebo, drinks per drinking days (DDD)","TT or GG or AC (RS1042173, RS1176713, RS17614942)",−1.12 DDD
same,"Least Squares Mean Difference, Estimated Mean Difference, AG vs. GG/AA","Table 3G, among OND-treated subjects, AG vs. GG/AA genotype",−1.90
same,"Least Squares Mean of Drinks per Drinking Days, Estimated Mean","Others (AA/GG and AA/CC), n = 112",6.12
same,"Least Squares Mean of Drinks per Drinking Days, Estimated Mean","RS1150226 AG or RS17614942 AC carriers, n = 23",4.19
same,"Least Squares Mean of Drinks per Drinking Days, Estimated Mean","all OND subjects, RS1150226 (AG) or RS17614942 (AC) analysis",5.16
same,"Least Squares Mean Difference between Treatment and Placebo, Estimated Mean Difference","Table 4C, OND vs. Placebo among AG or/and AC (RS1150226 AG, RS17614942 AC)",−2.12
same,"Least Squares Mean Difference between Treatment and Placebo, Estimated Mean Difference","Table 4C, OND vs. Placebo, all genotypes (main effect)",−0.99
same,"Least Squares Mean Difference, Estimated Mean Difference, (AG or AC) vs. Others","Table 4C, among OND-treated subjects, (AG or AC) vs. Others",−1.91
same,"Least Squares Mean, Drinks per Drinking Days","all OND patients, model Comb (LL + TT or AC or AG) vs Others",5.32
same,"Least Squares Mean, Drinks per Drinking Days","all OND patients, model RS1150226 (GG, AG/AA)",5.15
same,"Least Squares Mean, Drinks per Drinking Days","all OND patients, model RS1150226 (GG/AA, AG)",5.13
same,"Least Squares Mean, Drinks per Drinking Days","all OND patients, model RS17614942 (CC, AC/AA)",4.96
same,"Least Squares Mean, Drinks per Drinking Days","all OND patients, model RS17614942 (CC/AA, AC)",4.98
same,DDD reductions with OND,"all four variants (LL, TT, AG, AC)",more than 4 DDD
same,"Least Squares Mean Difference, Drinks per Drinking Days, OND vs. Placebo","model RS17614942 (CC, AC/AA)",−1.20
same,"Least Squares Mean Difference, Drinks per Drinking Days, OND vs. Placebo","model RS17614942 (CC/AA, AC)",−1.30
same,"Drinks per Drinking Days, Least Squares Estimated Mean Difference","among AC/AA: OND vs. Placebo, model RS17614942",−2.04
same,"Drinks per Drinking Days, Least Squares Estimated Mean Difference","among AC/AA: OND vs. Placebo, model RS17614942 and 5-HTTLPR",−2.13
same,"Drinks per Drinking Days, Least Squares Estimated Mean Difference","among CT/TT: OND vs. Placebo, model RS4938056 and 5-HTTLPR",−0.81
same,"Drinks per Drinking Days, Least Squares Estimated Mean Difference","among LL: OND vs. Placebo, model 5-HTTLPR and RS1062613",−1.29
same,"Drinks per Drinking Days, Least Squares Estimated Mean Difference","among LL: OND vs. Placebo, model 5-HTTLPR and RS1150226",−1.47
same,"Drinks per Drinking Days, Least Squares Estimated Mean Difference","among LL: OND vs. Placebo, model RS17614942 and 5-HTTLPR",−1.86
same,"Drinks per Drinking Days, Least Squares Estimated Mean Difference","among OND: AC/AA vs. CC, model RS17614942",−1.60
same,"Drinks per Drinking Days, Least Squares Estimated Mean Difference","among OND: AC/AA vs. CC, model RS17614942 and 5-HTTLPR",−1.45
same,"Drinks per Drinking Days, Least Squares Estimated Mean Difference","among OND: AG/AA vs. GG, model 5-HTTLPR and RS1150226",−1.25
same,"Drinks per Drinking Days, Least Squares Estimated Mean Difference","among OND: AG/AA vs. GG, model RS1150226",−1.47
same,"Drinks per Drinking Days, Least Squares Estimated Mean Difference","among OND: CT/TT vs. CC, model RS4938056",−1.24
same,"Drinks per Drinking Days, Least Squares Estimated Mean Difference","among OND: CT/TT vs. CC, model RS4938056 and 5-HTTLPR",−1.13
same,"Drinks per Drinking Days, Least Squares Estimated Mean Difference","among OND: LL + CT/TT vs. Others, simplified model",−1.64
same,"Drinks per Drinking Days, Least Squares Estimated Mean Difference","among OND: LL vs. LS/SS, model 5-HTTLPR and RS1062613",−1.39
same,"Drinks per Drinking Days, Least Squares Estimated Mean Difference","among OND: LL vs. LS/SS, model 5-HTTLPR and RS1150226",−1.27
same,"Drinks per Drinking Days, Least Squares Estimated Mean Difference","among OND: LL vs. LS/SS, model RS4938056 and 5-HTTLPR",−1.37
same,"Drinks per Drinking Days, Least Squares Estimated Mean Difference","among OND: LL vs. LS/SS, model RS17614942 and 5-HTTLPR",−1.33
same,"Drinks per Drinking Days, Least Squares Estimated Mean Difference","among OND: TC/CC vs. TT, model 5-HTTLPR and RS1062613",−1.05
same,"Drinks per Drinking Days, Least Squares Estimated Mean Difference","among OND: TC/CC vs. TT, model RS1062613",−1.06
same,"Drinks per Drinking Days, Least Squares Estimated Mean Difference","among TC/CC: OND vs. Placebo, model 5-HTTLPR and RS1062613",−1.10
same,"Drinks per Drinking Days, Least Squares Estimated Mean Difference","among TC/CC: OND vs. Placebo, model RS1062613",−0.90
same,"DDD reduction, OND compared to placebo","any one of three variants: 5-HTTLPR [LL], RS1150226 [AG], RS17614942 [AC]",at least 1.4 DDD
same,"DDD reduction, OND compared to placebo","any two of the three variants (LL, AG, AC)",at least 2.4 DDD
same,DDD reductions with OND,"any two of three variants: 5-HTTLPR (LL), RS1042173 (TT), RS1176713 (GG)",at least 2 DDD
same,DDD reductions with OND,either 5-HTTLPR (LL) or RS1176713 (GG),at least 1.4 DDD
same,DDD reductions with OND,"either one or two or three or four of the four variants (LL, TT, AG, AC)",at least 0.9 DDD
same,DDD reductions with OND,"either three of the four variants (LL, TT, AG, AC)",more than 2 DDD
same,DDD reductions with OND,"either two of four variants: 5-HTTLPR (LL), RS1042173 (TT), RS1150226 (AG), RS17614942 (AC)",at least 2 DDD
same,"DDD reductions, OND compared to placebo","one or two of the three variants (LL, AG, AC)",about 1.4 DDD
same,Response to Ondansetron treatment,"one or two or three of 5-HTTLPR [LL], RS1150226 [AG], RS17614942 [AC], 120 patients",seemed to respond
same,"DDD reductions, OND compared to placebo","one or two or three of the three variants (LL, AG, AC)",at least 1.4 DDD
same,Response to OND treatment,"one or two or three or four of 5-HTTLPR (LL), RS1042173 (TT), RS1176719 (AA), RS17614942 (AC)",likely to respond
same,DDD reductions with OND,"one, or two or three of the three variants (LL, TT, RS1176713 GG)",at least 0.9 DDD
same,"DDD reduction, OND compared with placebo groups","patients who had LL+TT or RS17614942 (AC) or RS1150226 (AG), 84 of 273 patients",at least 1.75 DDD
same,"Estimate, OND vs. Placebo, drinks per drinking days (DDD)",patients with 5-HTTLPR (LL),−1.41 DDD
same,"DDD reductions, OND compared to placebo",patients with either 5-HTTLPR (LL) or RS1150226 (AG) or RS17614942 (AC),at least 1.4 DDD
same,Log mean Drinks/Drinking Day,printed 'TT/GG and group' (rs1042173),1.68±0.07 Drinks/Drinking Day
same,Estimated mean DDD difference for OND vs. placebo,"regardless of rs17614942 genotypes, 5HT3b cohort",−1.15
same,"Log mean difference in Drinks/Drinking Day, TTond vs TG/GG ond","rs1042173, among ondansetron recipients, 95% CI -0.53 to -0.13, p=0.002",−0.33
same,"Reducing severe drinking vs placebo (Log Drinks/Drinking day, mixed model)","rs1042173 TT genotype, ondansetron 4 mcg/kg, p=0.028",more beneficial than placebo
same,Log mean Drinks/Drinking Day,rs1042173 TT group that received ondansetron 4 mcg/kg,1.36±0.10 Drinks/Drinking Day
same,"Reduction of DDD by ondansetron, C-carriers compared with TT subjects",rs1062613 (5HT3a),1.17 sd
same,"Reduction of DDD by ondansetron, AG/AA compared to GG subjects",rs1150226 (5HT3a),1.74 sd
same,"Reduction of DDD by ondansetron, T-carriers compared with CC subjects",rs4938056 (5HT3b),1.30 sd
same,"Reduction in DDD, AC/AA treated with ondansetron compared to CC subjects",rs17614942 (5HT3b),1.97 sd
same,"Least Squares Mean Difference, Drinks per Drinking Days, AG/AA vs. GG","second AG/AA vs. GG line printed under Among OND, RS1150226",−0.98
same,"DDD reduction, OND compared to placebo","the three variants (LL, AG, AC)",at least 4 DDD
same,DDD reductions with OND,"the three variants (LL, TT, RS1176713 GG)",at least 7 DDD
same,Reduction of DDD by ondansetron compared to the placebo,within AC/AA group of rs17614942,2.41 sd
same,Reduction of DDD by ondansetron compared to the placebo,within AG/AA group of rs1150226,1.57 sd
same,"Least square Mean difference in DDD, ondansetron vs placebo",within LL+AC/AA group (5HTTLPR + rs17614942),3.6 sd
same,"Least square Mean difference in DDD, ondansetron vs placebo",within LL+CT/TT group (5HTTLPR + rs4938056),1.74 sd

# Source: patent US12226401B2, “Molecular genetic approach to treatment and diagnosis of alcohol and drug dependence” (priority 2010, dated 2025)
